Assay results: patent US8716236B2, “Inhibitors of IAP” (Genentech, Inc., priority 2012, dated 2014)

System: human breast MDA-MB-231•X1 cells
Experiment: Tumor xenograft study
Format: in vivo, mouse
Conditions: MDA-MB-231•X1 xenograft in female nude mice, iv Qwk
Procedure: All procedures involving animals were performed in accordance with the guidelines of the Genentech Institutional Animal Care and Use Committee. Cancer cells such as Human breast MDA-MB-231, colorectal, Colo205, or NSCLC, Calu6 cancer cells were obtained from American Type Culture Collection (Manassas, Va.). Cells were resuspended in HBSS (Colo205) or the cell suspension was mixed 1:1 with Matrigel (BD Biosciences; MDA-MB-231, Calu6). The cells (1.5×10^7 for MDA-MB-231; 5.0×10^7 for Colo205, Calu6) were then implanted subcutaneously into the right flank of female nude mice (Charles River Laboratories, Hollister, Calif.) aged 6-8 weeks. Tumor volumes were calculated using the mean diameter measured with vernier calipers using the formula v=0.5×a×b^2, were a and b are the largest and smallest perpendicular tumor diameters, respectively. Ten mice with the appropriate mean tumor volume were assigned randomly to each of six groups. The mean tumor volume±the standard error of the mean (SEM) for all six groups was 168±3 mm^3 at the initiation of treatment (Day 0). The mice were observed on each day of the study, and tumor volumes and body weights were measured twice each week.

| Structure (SMILES) | MED [mg/kg] |
| --- | --- |
| CN[C@@H](C)C(=O)N[C@H](C(=O)N1CCCC1C(=O)Nc1snnc1-c1ccccc1)C1CCCCC1 (some centres unmarked) [III] | 18.6 |
| CN[C@@H](C)C(=O)N[C@H](C(=O)N1CCC[C@H]1C(=O)Nc1sc(-c2ncco2)nc1-c1ccccc1)C1CCCCC1 [Ia, (S)-1-[(S)-2-cyclohexyl-2-((S)-2-methylamino-propionylamino)-acetyl]-pyrrolidine-2-carboxylic acid (2-oxazol-2-yl-4-phenyl-thiazol-5-yl)-amide] | 3.4 |
